These results are taken from PMC10882719 (Frontiers in Neuroscience, 2024).

Structures are written as SMILES. pEC50, pIC50: −log10 of the molar value.

Data set [1] concerns the target T1, 5HT reuptake (SERT), rat brain synaptosomes (Rattus norvegicus, UniProt P31652).
T1 construct: Rat brain synaptosomes were isolated from Sprague Dawley rats (200-250 g); from tissue; host or cells: rat brain synaptosomes (Sprague Dawley)
Nature of the data set: Uptake inhibition assay, [3H]5-HT, rat brain synaptosomes. The class given is biochemical.

For data set [2], the target named is T2, NE uptake (NET), rat brain synaptosomes (Rattus norvegicus, UniProt Q63380).
T2 construct: Rat brain synaptosomes were isolated from Sprague Dawley rats (200-250 g); from tissue; host or cells: rat brain synaptosomes (Sprague Dawley)
Briefly: Uptake inhibition assay, [3H]NE, rat brain synaptosomes. The class given is biochemical.

The target of data set [3] is T3, DA uptake (DAT), rat brain synaptosomes (Rattus norvegicus, UniProt P23977).
T3 construct: Rat brain synaptosomes were isolated from Sprague Dawley rats (200-250 g); from tissue; host or cells: rat brain synaptosomes (Sprague Dawley)
Briefly: Uptake inhibition assay, [3H]DA, rat brain synaptosomes. The class given is biochemical.

Data set [4] has as its target T4, 5HT release (SERT), rat brain synaptosomes (Rattus norvegicus, UniProt P31652).
T4 construct: Rat brain synaptosomes were isolated from Sprague Dawley rats (200-250 g); from tissue; host or cells: rat brain synaptosomes (Sprague Dawley)
Nature of the data set: Release assay, [3H]5-HT, superfused rat brain synaptosomes. The class given is biochemical. On the procedure:
(§1) Test compounds and synaptosomes were prepared as described for uptake inhibition assays. Synaptosomes treated with [^3H] 5-HT, [^3H] DA or [^3H] NE were loaded onto filter chambers containing GF/C filters and placed in a superfusion system. Oxygenated Krebs buffer was perfused through the chambers at a rate of 1.5 mL/min at 35°C using either an 8-channel or a 12-channel peristaltic pump. Trapped air bubbles were removed from the filters prior to collecting fractions to ensure an even flow over the synaptosomal bed. After a superfusion period of 45 min, 2 basal fractions were collected followed by 6 fractions following the addition of the test drug. […] After the addition of scintillation cocktail, radioactivity was counted using a Wallac® TriLux 1,450 MicroBeta counter. […] Scintillation cocktail was added, and the filters counted to determine residual radioactivity. Drug-evoked release of neurotransmitter was calculated by subtracting the average of the two basal fractions (collected prior to the drug addition), from the four fractions collected in the presence of drug. The drug-evoked release was then expressed as a percentage of the basal release. Potassium-evoked release was calculated by subtracting the average of two fractions collected prior to the addition of high KCl buffer from that in the two fractions following addition of high KCl buffer. […]

Data set [5] concerns the target T5, NE release (NET), rat brain synaptosomes (Rattus norvegicus, UniProt Q63380).
T5 construct: Rat brain synaptosomes were isolated from Sprague Dawley rats (200-250 g); from tissue; host or cells: rat brain synaptosomes (Sprague Dawley)
Briefly: Release assay, [3H]NE, superfused rat brain synaptosomes. The class given is biochemical. On the procedure: as §1

Data set [6] deals with T6, DA release (DAT), rat brain synaptosomes (Rattus norvegicus, UniProt P23977).
T6 construct: Rat brain synaptosomes were isolated from Sprague Dawley rats (200-250 g); from tissue; host or cells: rat brain synaptosomes (Sprague Dawley)
Nature of the data set: Release assay, [3H]DA, superfused rat brain synaptosomes. The class given is biochemical. On the procedure: as §1

For data set [7], the system named is PTSD patients (CAPS-5). The settings on record: open-label, 14 PTSD patients; ref Jones et al., 2023; cited from earlier work.

T6 sequence (P23977 whole entry): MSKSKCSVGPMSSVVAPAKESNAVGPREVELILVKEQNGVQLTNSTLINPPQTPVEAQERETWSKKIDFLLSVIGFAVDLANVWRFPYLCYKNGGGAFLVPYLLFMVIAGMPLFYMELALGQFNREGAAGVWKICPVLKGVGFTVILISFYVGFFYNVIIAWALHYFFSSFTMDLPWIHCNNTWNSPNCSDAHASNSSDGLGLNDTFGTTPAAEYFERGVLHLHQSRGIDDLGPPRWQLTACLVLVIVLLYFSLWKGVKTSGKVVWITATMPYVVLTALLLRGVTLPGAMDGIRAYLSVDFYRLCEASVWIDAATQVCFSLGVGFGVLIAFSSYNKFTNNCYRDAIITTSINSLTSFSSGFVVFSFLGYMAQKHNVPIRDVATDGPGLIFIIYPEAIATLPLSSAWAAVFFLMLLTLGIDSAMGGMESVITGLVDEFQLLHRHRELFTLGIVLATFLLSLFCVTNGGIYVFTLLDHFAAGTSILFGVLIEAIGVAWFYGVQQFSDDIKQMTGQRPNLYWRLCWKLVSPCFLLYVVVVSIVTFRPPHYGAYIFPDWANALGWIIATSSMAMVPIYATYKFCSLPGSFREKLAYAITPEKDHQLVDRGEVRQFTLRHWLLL
T3 sequence (P23977 whole entry): as above
T4 sequence (P31652 whole entry): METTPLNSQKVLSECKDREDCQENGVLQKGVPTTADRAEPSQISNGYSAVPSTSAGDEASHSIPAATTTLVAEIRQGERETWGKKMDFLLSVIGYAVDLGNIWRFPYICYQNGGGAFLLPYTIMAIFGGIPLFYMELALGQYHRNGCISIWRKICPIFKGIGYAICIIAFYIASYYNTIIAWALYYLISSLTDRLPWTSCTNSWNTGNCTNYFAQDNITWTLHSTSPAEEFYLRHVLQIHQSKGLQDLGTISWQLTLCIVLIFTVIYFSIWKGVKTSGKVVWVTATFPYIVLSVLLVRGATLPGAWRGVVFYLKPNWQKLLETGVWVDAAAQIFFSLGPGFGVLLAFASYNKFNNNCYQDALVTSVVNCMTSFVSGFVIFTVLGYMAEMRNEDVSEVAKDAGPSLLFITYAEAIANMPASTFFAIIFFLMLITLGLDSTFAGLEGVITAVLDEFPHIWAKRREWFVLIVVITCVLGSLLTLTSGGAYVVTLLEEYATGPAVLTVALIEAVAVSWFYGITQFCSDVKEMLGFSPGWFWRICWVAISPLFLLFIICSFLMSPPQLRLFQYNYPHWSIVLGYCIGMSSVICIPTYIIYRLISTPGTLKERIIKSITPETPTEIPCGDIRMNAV
T1 sequence (P31652 whole entry): as above
T5 sequence (Q63380 1-617): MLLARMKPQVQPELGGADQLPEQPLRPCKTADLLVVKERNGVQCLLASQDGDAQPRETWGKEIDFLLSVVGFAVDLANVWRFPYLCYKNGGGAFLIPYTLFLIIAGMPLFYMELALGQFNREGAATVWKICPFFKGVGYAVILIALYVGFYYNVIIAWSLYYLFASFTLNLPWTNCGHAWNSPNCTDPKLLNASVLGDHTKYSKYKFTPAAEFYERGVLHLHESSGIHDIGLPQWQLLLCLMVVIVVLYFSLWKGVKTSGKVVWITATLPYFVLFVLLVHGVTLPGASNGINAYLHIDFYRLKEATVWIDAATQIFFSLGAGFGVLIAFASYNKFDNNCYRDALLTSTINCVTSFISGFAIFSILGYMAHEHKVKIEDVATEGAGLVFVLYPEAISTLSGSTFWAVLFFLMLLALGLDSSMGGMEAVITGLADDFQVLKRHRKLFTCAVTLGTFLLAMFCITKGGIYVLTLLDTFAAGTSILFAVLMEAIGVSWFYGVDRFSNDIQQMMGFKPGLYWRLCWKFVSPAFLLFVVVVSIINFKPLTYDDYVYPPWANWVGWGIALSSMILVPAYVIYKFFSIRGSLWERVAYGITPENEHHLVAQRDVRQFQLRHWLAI
T2 sequence (Q63380 1-617): as above

Turning to `CNC(C)C(=O)c1ccc2c(c1)OCO2` (stereo not drawn) [methylone], the negative logarithm of the IC50 (pIC50) (commonly −log10 of the IC50, conventionally taken in molar units) in data set [1] is 6.37; in data set [2] it was 6.89; in data set [3] it was 5.64. The pEC50 (usually −log10 of the EC50, conventionally taken in molar units) in data set [4] was 6.21; in data set [5], 6.48; in data set [6], 5.32. Moreover, the “Amount of DA released compared to MDMA” value in data set [6] (rat brain synaptosomes, Figure 1C) is “Less DA was released”. Moreover, in data set [7], the Adverse events entry was “no significant adverse events”. For the same compound, the “Reduction in CAPS-5” value in data set [7] is on record as 36.2 point.
